# Tests used:
# Cysltr1/Cysltr2^−/− mice = test: LTE4 amplification of pulmonary inflammation in mice lacking both CysLT1R and CysLT2R; type: in vivo, mouse
# Method: FIG. 4. […] 4A. […] Clopidogrel (500 μg/ml) was added to the drinking water of the indicated groups of mice for 72 h before the first intranasal dose of LTs, and was maintained throughout the treatment. Results are mean±SEM from at least 9 mice in each group. The experiments were repeated three times with similar results. 4B. PAS stains (left column) from representative mice in the indicated groups showing the effect of clopidigrel on goblet cell metaplasia. Higher magnification images of H & E stains (right) from the same animals showing cellular characteristics of the bronchovascular infiltrates. 4C. Effect of clopidogrel administration on the steady-state expression of IL-13 and MUC5AC mRNA as determined by real-time PCR of whole lung RNA extracted 24 h after the last OVA challenge of the indicated groups. Data are mean±SEM from 4-5 mice/group from a single experiment. Results in a second experiment were similar 4D-4F. […] 4D. Total cell numbers (top), percentages of eosinophils (middle), and total numbers of eosinophils in BAL fluid recovered 24 h after the last challenge with OVA. 4E. Goblet cell metaplasia (top) and representative PAS stains (bottom) from wild-type and p2ry12^−/− mice subjected to the same protocol. 4E. Inflammation scores from the same mice. Data in 4D-4F are from 4 mice per group. […] Quantitative assessment of bronchovascular inflammation as determined by H & E stains. […]
# human CysLT1R = molecular target: T1, human CysLT1R (Homo sapiens, UniProt Q9Y271); test: ERK activation in CysLT1R CHO transfectants; type: cell-based
# T1 construct: expressed in transfected cells
# T1 sequence (Q9Y271 1-337): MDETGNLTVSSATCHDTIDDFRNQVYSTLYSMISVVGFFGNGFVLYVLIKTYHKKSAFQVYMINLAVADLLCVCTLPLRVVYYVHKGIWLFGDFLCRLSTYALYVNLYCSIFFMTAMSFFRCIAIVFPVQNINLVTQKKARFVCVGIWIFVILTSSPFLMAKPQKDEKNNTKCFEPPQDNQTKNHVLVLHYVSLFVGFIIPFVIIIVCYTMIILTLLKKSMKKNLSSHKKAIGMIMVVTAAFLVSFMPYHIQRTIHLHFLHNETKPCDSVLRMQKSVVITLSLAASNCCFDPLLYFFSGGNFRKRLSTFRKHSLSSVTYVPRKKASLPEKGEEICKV
# Method: FIG. 1. Activation by recombinant human P2Y12 receptors in response to cys-LTs. The human P2Y12 receptor cDNA was cloned in forward and reverse orientation into the expression vector pEF1/His B and transfected into CHO cells using Fugene HD reagent. Stably-expressing clones were selected using G418 (1000 μg/ml), and expression of the construct was confirmed by cytofluorographic detection of the HIS tag. 1A. […] 1B. SDS-PAGE immunoblots showing phosphorylation of ERK2 by CHO cells stably expressing human P2Y12 receptors in reverse (negative control) or forward orientations. […] The blots were stripped and re-probed with an antibody (Ab) recognizing total ERK1 and ERK2. […] 1C. Effect of the selective P2Y12 receptor antagonist 2-MesAMP (MeS) on ligand-induced ERK phosphorylation. P2Y12 receptor expressing CHO cells were stimulated with the same doses of agonists used in 1A, in the absence or presence of 2-MesAMP (100 μM). 1D. Comparison of P2Y12 receptor-mediated responses to cys-LTs with those of recombinant human CysLT1R and CysLT2R expressed in CHO cells, and the effect of the CysLT1R antagonist MK571 (1 μM).
# A P2Y12 receptor cDNA was amplified by reverse transcriptase polymerase chain reaction (RT-PCR) from RNA extracted from primary hMCs and cloned into a mammalian expression vector. Expression was confirmed by detection of a histidine (HIS) tag by flow cytometry. […]
effect on cys-LT-induced ERK activation (human CysLT1R),SMILES,"potentiation of OVA-induced BAL fluid eosinophilia, goblet cell metaplasia and inflammation (Cysltr1/Cysltr2^−/− mice)"
–,CCCCC/C=C\C\C=C/C=C/C=C/[C@@H](SC[C@H](N)C(=O)O)[C@@H](O)CCCC(=O)O [LTE4],completely intact
susceptible,CN(C)C(=O)CCSC(SCCC(=O)O)c1cccc(/C=C/c2ccc3ccc(Cl)cc3n2)c1 (centres unmarked) [MK571],–

# Reference: US8299097B2, “Methods for treating inflammatory disorders” (The Brigham and Women's Hospital, Inc., priority 2008, dated 2012)
